# Reference: ChEMBL document CHEMBL5625164, “Design, synthesis, and evaluation of new anti-inflammatory natural products amide derivatives endowed with anti-blood cancer activity towards development of potential multifunctional agents against hematological cancers” (Eur J Med Chem, 2023)
# Calls of active or inactive are those of the source. The calls are words filed in the database; no cut-off is given here.
# What was measured:
# [1] = Cytotoxicity against mouse RAW264.7 cells assessed as macrophage viability at 10 uM relative to control; assay type: toxicity, cell-based; conditions: read-out: Activity
# BV-2 [2] = assay: Anti-inflammatory activity against mouse BV-2 cells assessed as inhibition of LPS-induced NO production pretreated for 2 hrs followed stimulated with LPS for 22 hrs by Griess reaction assay; assay type: functional, cell-based
# BV-2 [3] = assay: Anti-inflammatory activity against mouse BV-2 cells assessed as inhibition of LPS-induced NO production at 10 uM pretreated for 2 hrs followed stimulated with LPS for 22 hrs by Griess reaction assay relative to control; assay type: functional; conditions: time 24 hrs
# BV-2 [4] = assay: Anti-inflammatory activity against mouse BV-2 cells assessed as inhibition of LPS-induced PGE2 production pretreated for 2 hrs followed stimulated with LPS for 22 hrs; assay type: functional, cell-based
# BV-2 [5] = assay: Anti-inflammatory activity against mouse BV-2 cells assessed as inhibition of LPS-induced PGE2 production pretreated for 2 hrs followed stimulated with LPS for 22 hrs at 10 uM relative to control; assay type: functional; conditions: time 24 hrs
# BV-2 [6] = assay: Anti-inflammatory activity against mouse BV-2 cells assessed as inhibition of LPS-induced TNFalpha production pretreated for 2 hrs followed stimulated with LPS for 22 hrs; assay type: functional, cell-based
# BV-2 [7] = assay: Anti-inflammatory activity against mouse BV-2 cells assessed as inhibition of LPS-induced TNFalpha production pretreated for 2 hrs followed stimulated with LPS for 22 hrs at 10 uM relative to control; assay type: functional; conditions: time 24 hrs
# CCRF-CEM [8] = assay: Anticancer activity against human CCRF-CEM cells assessed as growth inhibition at 10 uM measured after 48 hrs by SRB assay relative to control; assay type: functional; conditions: read-out: GI
# HL-60 [9] = assay: Anticancer activity against human HL-60 cells assessed as growth inhibition at 10 uM measured after 48 hrs by SRB assay relative to control; assay type: functional; conditions: for inhibition of growth at 10 µM: read-out: GI
# K562 [10] = assay: Anticancer activity against human K562 cells assessed as growth inhibition at 10 uM measured after 48 hrs by SRB assay relative to control; assay type: functional; conditions: read-out: GI
# MOLT-4 [11] = assay: Anticancer activity against human MOLT-4 cells assessed as growth inhibition at 10 uM measured after 48 hrs by SRB assay relative to control; assay type: functional; conditions: read-out: GI
# RPMI-8226 [12] = assay: Anticancer activity against human RPMI-8226 cells assessed as growth inhibition at 10 uM measured after 48 hrs by SRB assay relative to control; assay type: functional; conditions: read-out: GI
# SR [13] = assay: Anticancer activity against human SR cells assessed as growth inhibition at 10 uM measured after 48 hrs by SRB assay relative to control; assay type: functional; conditions: read-out: GI
# [14] = Cytotoxicity against mouse RAW264.7 cells assessed as macrophage viability at 40 uM relative to control; assay type: toxicity, cell-based; conditions: read-out: Activity
# BV-2 [15] = assay: Anti-inflammatory activity against mouse BV-2 cells assessed as inhibition of LPS-induced NO production at 40 uM pretreated for 2 hrs followed stimulated with LPS for 22 hrs by Griess reaction assay relative to control; assay type: functional; conditions: time 24 hrs
# CCRF-CEM [16] = assay: Anticancer activity against human CCRF-CEM cells assessed as growth inhibition measured after 48 hrs by SRB assay relative to control; assay type: functional
# HL-60 [17] = assay: Anticancer activity against human HL-60 cells assessed as growth inhibition measured after 48 hrs by SRB assay relative to control; assay type: functional
# K562 [18] = assay: Anticancer activity against human K562 cells assessed as growth inhibition measured after 48 hrs by SRB assay relative to control; assay type: functional
# MOLT-4 [19] = assay: Anticancer activity against human MOLT-4 cells assessed as growth inhibition measured after 48 hrs by SRB assay relative to control; assay type: functional
# RPMI-8226 [20] = assay: Anticancer activity against human RPMI-8226 cells assessed as growth inhibition measured after 48 hrs by SRB assay relative to control; assay type: functional
# SR [21] = assay: Anticancer activity against human SR cells assessed as growth inhibition measured after 48 hrs by SRB assay relative to control; assay type: functional
structure (smiles),measurement,setting,value
COc1cc2c(c(OC)c1OC)C(=O)CC(c1cccc(C(=O)Nc3ccc(Br)cc3)c1)O2 (racemic),viability at 10 µM,[1],113%
same,IC50,BV-2 [2],13.1 µM
same,inhibition at 10 µM,BV-2 [3],41.2%
same,IC50,BV-2 [4],10.3 µM
same,inhibition at 10 µM,BV-2 [5],62.6%
same,IC50,BV-2 [6],16.8 µM
same,inhibition at 10 µM,BV-2 [7],24.9%
same,inhibition of growth at 10 µM,CCRF-CEM [8],90.7%
same,inhibition of growth at 10 µM,HL-60 [9],86.3%
same,inhibition of growth at 10 µM,K562 [10],93.8%
same,inhibition of growth at 10 µM,MOLT-4 [11],101%
same,inhibition of growth at 10 µM,RPMI-8226 [12],85.4%
same,inhibition of growth at 10 µM,SR [13],77.8%
CC(=N)NCCCC[C@H](N)C(=O)O [L-NIL],viability at 40 µM,[14],106%
same,inhibition at 40 µM,BV-2 [15],54.3%
COc1cc2c(c(OC)c1OC)C(=O)CC(c1cccc(NC(=O)c3ccccc3)c1)O2 (racemic),viability at 10 µM,[1],97%
same,inhibition at 10 µM,BV-2 [3],23.5%
Cc1ccc(NC(=O)c2ccc(CN3CCN(C)CC3)cc2)cc1Nc1nccc(-c2cccnc2)n1 [IMATINIB],inhibition of growth at 10 µM,CCRF-CEM [8],6.6%
same,growth inhibition (GI),HL-60 [9],inactive
same,inhibition of growth at 10 µM,MOLT-4 [11],18%
same,inhibition of growth at 10 µM,RPMI-8226 [12],12.6%
same,inhibition of growth at 10 µM,SR [13],14.6%
same,GI50,CCRF-CEM [16],17 µM
same,GI50,HL-60 [17],13.5 µM
same,GI50,K562 [18],0.05 µM
same,GI50,MOLT-4 [19],5.13 µM
same,GI50,RPMI-8226 [20],6.17 µM
same,GI50,SR [21],7.24 µM
COc1cc2c(c(OC)c1OC)C(=O)CC(c1cccc(NC(=O)c3cccc(Cl)c3)c1)O2 (racemic),viability at 10 µM,[1],100%
same,inhibition at 10 µM,BV-2 [3],32.3%
COc1cc2c(c(OC)c1OC)C(=O)CC(c1cccc(C(=O)Nc3ccccc3)c1)O2 (racemic),viability at 10 µM,[1],110%
same,inhibition at 10 µM,BV-2 [3],24.2%
COc1cc2c(c(OC)c1OC)C(=O)CC(c1cccc(NC(=O)c3cccc(Br)c3)c1)O2 (racemic),viability at 10 µM,[1],105%
same,inhibition at 10 µM,BV-2 [3],14.2%
COc1cccc(CNC(=O)c2cccc(C3CC(=O)c4c(cc(OC)c(OC)c4OC)O3)c2)c1 (racemic),viability at 10 µM,[1],107%
same,inhibition at 10 µM,BV-2 [3],24.7%
COc1cc2c(c(OC)c1OC)C(=O)CC(c1cccc(C(=O)Nc3cccc([N+](=O)[O-])c3)c1)O2 (racemic),viability at 10 µM,[1],111%
same,IC50,BV-2 [2],14.7 µM
same,inhibition at 10 µM,BV-2 [3],42.7%
same,IC50,BV-2 [4],10.7 µM
same,inhibition at 10 µM,BV-2 [5],31.4%
same,IC50,BV-2 [6],> 20 µM
same,inhibition of growth at 10 µM,CCRF-CEM [8],89.7%
same,inhibition of growth at 10 µM,HL-60 [9],49.4%
same,inhibition of growth at 10 µM,K562 [10],63.5%
same,inhibition of growth at 10 µM,MOLT-4 [11],77.2%
same,inhibition of growth at 10 µM,RPMI-8226 [12],82.7%
same,inhibition of growth at 10 µM,SR [13],66.2%
COc1cc2c(c(OC)c1OC)C(=O)CC(c1cccc(C(=O)Nc3ccncc3)c1)O2 (racemic),viability at 10 µM,[1],91.3%
same,inhibition at 10 µM,BV-2 [3],16%
COc1ccc(C(=O)Nc2cccc(C3CC(=O)c4c(cc(OC)c(OC)c4OC)O3)c2)cc1 (racemic),viability at 10 µM,[1],102%
same,inhibition at 10 µM,BV-2 [3],15.2%
COc1cc2c(c(OC)c1OC)C(=O)CC(c1cccc(C(=O)Nc3cccc(Cl)c3)c1)O2 (racemic),viability at 10 µM,[1],93.9%
same,inhibition at 10 µM,BV-2 [3],24.6%
COc1cccc(C(=O)Nc2cccc(C3CC(=O)c4c(cc(OC)c(OC)c4OC)O3)c2)c1 (racemic),viability at 10 µM,[1],98%
same,inhibition at 10 µM,BV-2 [3],32.1%
COc1cc2c(c(OC)c1OC)C(=O)CC(c1cccc(NC(=O)c3ccc([N+](=O)[O-])cc3)c1)O2 (racemic),viability at 10 µM,[1],104%
same,IC50,BV-2 [2],19.8 µM
same,inhibition at 10 µM,BV-2 [3],35.8%
same,IC50,BV-2 [4],9.8 µM
same,inhibition at 10 µM,BV-2 [5],51.6%
same,Activity,BV-2 [6]; time 24.0 hrs,Dose-Dependent Effect
same,inhibition at 10 µM,BV-2 [7],54.6%
same,inhibition of growth at 10 µM,CCRF-CEM [8],75.6%
same,inhibition of growth at 10 µM,K562 [10],64.6%
same,inhibition of growth at 10 µM,MOLT-4 [11],84.2%
same,inhibition of growth at 10 µM,RPMI-8226 [12],66.6%
same,inhibition of growth at 10 µM,SR [13],73.8%
COc1cc2c(c(OC)c1OC)C(=O)CC(c1cccc(NC(=O)c3ccccc3Br)c1)O2 (racemic),viability at 10 µM,[1],101%
same,IC50,BV-2 [2],13.3 µM
same,inhibition at 10 µM,BV-2 [3],41.4%
same,inhibition at 10 µM,BV-2 [5],39%
same,IC50,BV-2 [6],7.3 µM
same,inhibition at 10 µM,BV-2 [7],62.4%
same,inhibition of growth at 10 µM,CCRF-CEM [8],26.9%
same,inhibition of growth at 10 µM,K562 [10],29.8%
same,inhibition of growth at 10 µM,MOLT-4 [11],30.4%
same,inhibition of growth at 10 µM,RPMI-8226 [12],41.8%
same,inhibition of growth at 10 µM,SR [13],31.6%
COc1cccc(NC(=O)c2cccc(C3CC(=O)c4c(cc(OC)c(OC)c4OC)O3)c2)c1 (racemic),viability at 10 µM,[1],112%
same,inhibition at 10 µM,BV-2 [3],21.9%
COc1cc2c(c(OC)c1OC)C(=O)CC(c1cccc(NC(=O)c3ccc(C#N)cc3)c1)O2 (racemic),viability at 10 µM,[1],115%
same,inhibition at 10 µM,BV-2 [3],26.8%
COc1cc2c(c(OC)c1OC)C(=O)CC(c1cccc(C(=O)Nc3ccccc3Br)c1)O2 (racemic),viability at 10 µM,[1],101%
same,inhibition at 10 µM,BV-2 [3],9.4%
COc1cc2c(c(OC)c1OC)C(=O)CC(c1cccc(C(=O)Nc3ccc(C#N)cc3)c1)O2 (racemic),viability at 10 µM,[1],122%
same,inhibition at 10 µM,BV-2 [3],21.2%
COc1cc2c(c(OC)c1OC)C(=O)CC(c1cccc(C(=O)Nc3cccnc3)c1)O2 (racemic),viability at 10 µM,[1],109%
same,inhibition at 10 µM,BV-2 [3],10.5%
COc1ccccc1NC(=O)c1cccc(C2CC(=O)c3c(cc(OC)c(OC)c3OC)O2)c1 (racemic),viability at 10 µM,[1],103%
same,inhibition at 10 µM,BV-2 [3],19.7%
COc1ccccc1C(=O)Nc1cccc(C2CC(=O)c3c(cc(OC)c(OC)c3OC)O2)c1 (racemic),viability at 10 µM,[1],103%
same,inhibition at 10 µM,BV-2 [3],14.3%
COc1cc2c(c(OC)c1OC)C(=O)CC(c1cccc(C(=O)Nc3cccc(F)c3)c1)O2 (racemic),viability at 10 µM,[1],110%
same,inhibition at 10 µM,BV-2 [3],25.8%
COc1ccc(NC(=O)c2cccc(C3CC(=O)c4c(cc(OC)c(OC)c4OC)O3)c2)cc1 (racemic),viability at 10 µM,[1],111%
same,inhibition at 10 µM,BV-2 [3],28.6%
COc1cc2c(c(OC)c1OC)C(=O)CC(c1cccc(C(=O)Nc3cccc(Br)c3)c1)O2 (racemic),viability at 10 µM,[1],97.9%
same,IC50,BV-2 [2],11.7 µM
same,inhibition at 10 µM,BV-2 [3],46.3%
same,IC50,BV-2 [4],10.9 µM
same,inhibition at 10 µM,BV-2 [5],19.8%
same,IC50,BV-2 [6],15.5 µM
same,inhibition at 10 µM,BV-2 [7],39.5%
same,inhibition of growth at 10 µM,CCRF-CEM [8],55%
same,inhibition of growth at 10 µM,HL-60 [9],8.2%
same,inhibition of growth at 10 µM,K562 [10],50.2%
same,inhibition of growth at 10 µM,MOLT-4 [11],51.2%
same,inhibition of growth at 10 µM,RPMI-8226 [12],53.2%
